What was measured:
[1] = target: serotonin transporter (SERT) (Homo sapiens, UniProt P31645); test: Serotonin reuptake inhibition, [3H]-5-HT, cells transfected with 5-HT transporter cDNA; details: for Triple reuptake inhibition (Ratio %) SERT: compound 1 μM, relative to control without compound (100%), lower value = stronger inhibition
Procedure: (§1) After removing the medium, each compound of Examples or Comparative Examples diluted to 1 μM in uptake buffer was added to a concentration of 200 μL/well and cultured at 37° C. for 15 minutes. 100 μL of uptake buffer containing 20-30 nM [3H]-DA was added and cultured at 37° C. for 5 minutes. The reaction solution was quickly removed and washed three times with 1 mL ice-cold uptake buffer. After dissolving the resultant in 1% SDS (0.5 mL), the degree of binding of radioisotope-labeled dopamine to the transporter was measured.
(§2) For norepinephrine(NE) and serotonin(5-HT), the degree of binding of radioisotope-labeled norepinephrine or serotonin to the transporter was measured in the same manner as above, except that cells transfected with NE or 5-HT transporter cDNA were used and [3H]-NE or [3H]-5-HT was used as a substrate.
(§3) In addition, when evaluating the reuptake inhibitory effect on dopamine, norepinephrine, and serotonin, the same method was performed without treating each compound of Examples or Comparative Examples as a control, the degree of binding of radioisotope-labeled dopamine, norepinephrine, and serotonin to the transporter was measured, and by using this as a reference (100%), the triple reuptake inhibitory effect was evaluated as a relative ratio (Ratio %). That is, in the control group, the binding of dopamine, norepinephrine, and serotonin to transporters is not inhibited, but when each compound of Examples is treated and thus the binding is inhibited, the Ratio % value decreases.

[2] = target: norepinephrine transporter (NET) (Homo sapiens, UniProt P23975); test: Norepinephrine reuptake inhibition, [3H]-NE, cells transfected with NE transporter cDNA; details: for Triple reuptake inhibition (Ratio %) NET: compound 1 μM, relative to control without compound (100%), lower value = stronger inhibition
Procedure: as §1, §2, §3

[3] = target: dopamine transporter (DAT) (Homo sapiens, UniProt Q01959); test: Dopamine reuptake inhibition, [3H]-DA, HEK-293 cells transfected with dopamine transporter cDNA; details: for Triple reuptake inhibition (Ratio %) DAT: compound 1 μM, relative to control without compound (100%), lower value = stronger inhibition
dopamine transporter (DAT), sequence (Q01959 whole entry, species assumed): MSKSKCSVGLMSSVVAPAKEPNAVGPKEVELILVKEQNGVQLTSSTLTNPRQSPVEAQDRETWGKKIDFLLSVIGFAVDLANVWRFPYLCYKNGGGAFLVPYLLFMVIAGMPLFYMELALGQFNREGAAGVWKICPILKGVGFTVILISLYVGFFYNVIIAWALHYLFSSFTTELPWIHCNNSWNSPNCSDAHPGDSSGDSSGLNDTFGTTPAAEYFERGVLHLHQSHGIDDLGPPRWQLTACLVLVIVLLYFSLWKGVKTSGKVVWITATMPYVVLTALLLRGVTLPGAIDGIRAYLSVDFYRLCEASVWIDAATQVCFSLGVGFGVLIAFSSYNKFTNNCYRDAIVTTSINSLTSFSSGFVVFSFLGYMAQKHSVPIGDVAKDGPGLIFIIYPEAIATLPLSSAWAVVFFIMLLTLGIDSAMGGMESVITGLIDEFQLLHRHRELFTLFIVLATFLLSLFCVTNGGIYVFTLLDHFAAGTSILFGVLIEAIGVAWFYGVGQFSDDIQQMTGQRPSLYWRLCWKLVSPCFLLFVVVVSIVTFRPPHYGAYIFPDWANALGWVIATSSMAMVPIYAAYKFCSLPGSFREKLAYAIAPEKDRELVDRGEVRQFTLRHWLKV
Procedure: as §1, §3

norepinephrine transporter (NET), sequence (P23975 whole entry, species assumed): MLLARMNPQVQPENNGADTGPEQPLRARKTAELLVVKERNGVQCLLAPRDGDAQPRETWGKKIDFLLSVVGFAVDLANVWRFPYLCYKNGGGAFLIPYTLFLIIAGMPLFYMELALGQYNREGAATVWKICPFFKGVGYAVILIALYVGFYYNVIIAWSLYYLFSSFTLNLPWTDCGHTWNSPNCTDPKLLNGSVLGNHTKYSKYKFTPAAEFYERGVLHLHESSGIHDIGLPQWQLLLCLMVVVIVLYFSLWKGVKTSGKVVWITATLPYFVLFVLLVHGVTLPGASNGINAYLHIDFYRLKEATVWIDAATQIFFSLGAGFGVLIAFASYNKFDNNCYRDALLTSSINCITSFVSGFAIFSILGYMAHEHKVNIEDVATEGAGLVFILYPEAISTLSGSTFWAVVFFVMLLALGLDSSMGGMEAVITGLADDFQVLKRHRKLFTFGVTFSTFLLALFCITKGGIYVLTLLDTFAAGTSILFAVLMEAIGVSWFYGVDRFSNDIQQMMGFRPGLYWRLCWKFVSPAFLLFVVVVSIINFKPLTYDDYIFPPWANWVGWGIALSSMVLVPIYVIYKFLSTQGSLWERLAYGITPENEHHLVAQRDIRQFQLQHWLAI
serotonin transporter (SERT), sequence (P31645 whole entry, species assumed): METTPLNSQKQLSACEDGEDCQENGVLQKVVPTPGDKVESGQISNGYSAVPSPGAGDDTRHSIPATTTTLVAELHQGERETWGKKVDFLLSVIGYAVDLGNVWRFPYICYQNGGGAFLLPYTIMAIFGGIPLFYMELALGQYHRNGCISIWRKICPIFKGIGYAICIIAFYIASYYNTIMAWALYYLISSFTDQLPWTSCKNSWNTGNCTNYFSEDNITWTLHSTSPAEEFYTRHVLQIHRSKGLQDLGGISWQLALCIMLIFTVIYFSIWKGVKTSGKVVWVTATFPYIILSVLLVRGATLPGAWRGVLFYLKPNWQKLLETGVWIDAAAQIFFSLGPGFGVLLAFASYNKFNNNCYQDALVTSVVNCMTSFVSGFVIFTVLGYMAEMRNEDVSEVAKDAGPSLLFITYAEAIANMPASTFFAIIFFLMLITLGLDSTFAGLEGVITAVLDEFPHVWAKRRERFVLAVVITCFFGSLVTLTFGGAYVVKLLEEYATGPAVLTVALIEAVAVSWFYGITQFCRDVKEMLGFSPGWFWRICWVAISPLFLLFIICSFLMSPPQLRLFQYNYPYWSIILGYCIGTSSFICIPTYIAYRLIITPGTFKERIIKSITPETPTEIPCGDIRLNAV

| SMILES | Triple reuptake inhibition (Ratio %) SERT [1] [%] | Triple reuptake inhibition (Ratio %) NET [2] [%] | Triple reuptake inhibition (Ratio %) DAT [3] [%] | IC50 [1] [nM] | IC50 [2] [nM] | IC50 [3] [nM] |
| --- | --- | --- | --- | --- | --- | --- |
| c1ccc(CC2CCN(Cc3nnc(-c4cc5ccccc5s4)[nH]3)CC2)cc1 [Example 26, 1-((5-(benzo[b]thiophen-2-yl)-4H-1,2,4-triazol-3-yl)methyl)-4-benzylpiperidine] | 88.78 | 53.01 | 26.92 | – | – | – |
| c1ccc(CC2CCN(Cc3nnc(-c4ccc5c(c4)OCO5)[nH]3)CC2)cc1 [Example 27, 1-((5-(benzo[d][1,3]dioxol-5-yl)-4H-1,2,4-triazol-3-yl)methyl)-4-benzylpiperidine] | 59.52 | 53.55 | 9.71 | 968 | 1990 | 62 |
| O=C(O)c1ccc2[nH]c(-c3nnc(CN4CCC(Cc5ccccc5)CC4)[nH]3)cc2c1 [Example 28, 2-(5-((4-benzylpiperidin-1-yl)methyl)-4H-1,2,4-triazol-3-yl)-1H-indol-5-carboxylic acid] | 93.63 | 85.85 | 65.47 | – | – | – |
| Fc1ccc2[nH]c(-c3nnc(CN4CCC(Cc5ccc(Cl)c(Cl)c5)CC4)[nH]3)cc2c1 [Example 29, 2-(5-((4-(3,4-dichlorobenzyl)piperidin-1-yl)methyl)-4H-1,2,4-triazol-3-yl)-5-fluoro-1H-indole] | 72.63 | 45.28 | 36.13 | – | – | – |
| Cc1ccc2[nH]c(-c3nnc(CN4CCC(Cc5ccc(Cl)c(Cl)c5)CC4)[nH]3)cc2c1 [Example 30, 2-(5-((4-(3,4-dichlorobenzyl)piperidin-1-yl)methyl)-4H-1,2,4-triazol-3-yl)-5-methyl-1H-indole] | 88.71 | 96.77 | 72.11 | – | – | – |
| COc1cc2cc(-c3nnc(CN4CCC(Cc5ccc(Cl)c(Cl)c5)CC4)[nH]3)[nH]c2cc1OC [Example 31, 2-(5-((4-(3,4-dichlorobenzyl)piperidin-1-yl)methyl)-4H-1,2,4-triazol-3-yl)-5,6-dimethoxy-1H-indole] | 32.68 | 32.54 | 19.20 | 276 | 459 | 204 |
| Fc1ccc2[nH]c(-c3nnc(CN4CCC(c5c[nH]c6ccccc56)CC4)[nH]3)cc2c1 [Example 32, 2-(5-((4-(1H-indol-3-yl)piperidin-1-yl)methyl)-4H-1,2,4-triazol-3-yl)-5-fluoro-1H-indole] | 51.31 | 93.09 | 44.81 | – | – | – |
| c1ccc(CC2CCN(Cc3nnc(-c4cc5ccccc5[nH]4)o3)CC2)cc1 [Example 33, 2-((4-benzylpiperidin-1-yl)methyl)-5-(1H-indol-2-yl)-1,3,4-oxadiazole] | 103.08 | 145.38 | 97.72 | – | – | – |
| Clc1ccc(CC2CCN(Cc3nnc(-c4cc5ccccc5[nH]4)o3)CC2)cc1Cl [Example 34, 2-((4-(3,4-dichlorobenzyl)piperidin-1-yl)methyl)-5-(1H-indol-2-yl)-1,3,4-oxadiazole] | 94.18 | 124.25 | 90.85 | – | – | – |
| Oc1cc2cc(-c3nnc(CN4CCC(Cc5ccccc5)CC4)[nH]3)[nH]c2cc1O [Example 35, 2-(5-((4-benzylpiperidin-1-yl)methyl)-4H-1,2,4-triazol-3-yl)-1H-indol-5,6-diol] | 27.99 | 56.53 | 35.65 | 300 | 427 | 629 |
| COc1ccc2[nH]cc(-c3nnc(CN4CCC(Cc5ccccc5)CC4)[nH]3)c2c1 [Example 36, 3-(5-((4-benzylpiperidin-1-yl)methyl)-4H-1,2,4-triazol-3-yl)-5-methoxy-1H-indole] | 41.52 | 85.40 | 69.78 | – | – | – |
| COc1cccc2c(-c3nnc(CN4CCC(Cc5ccccc5)CC4)[nH]3)c[nH]c12 [Example 37, 3-(5-((4-benzylpiperidin-1-yl)methyl)-4H-1,2,4-triazol-3-yl)-7-methoxy-1H-indole] | 27.71 | 79.91 | 40.29 | 322 | 1570 | 349 |
| Cc1ccc2c(-c3nnc(CN4CCC(Cc5ccccc5)CC4)[nH]3)c[nH]c2c1 [Example 38, 3-(5-((4-benzylpiperidin-1-yl)methyl)-4H-1,2,4-triazol-3-yl)-6-methyl-1H-indole] | 51.55 | 64.82 | 31.70 | 518 | 361 | 670 |
| Cc1ccc2[nH]cc(-c3nnc(CN4CCC(Cc5ccccc5)CC4)[nH]3)c2c1 [Example 39, 3-(5-((4-benzylpiperidin-1-yl)methyl)-4H-1,2,4-triazol-3-yl)-5-methyl-1H-indole] | 58.07 | 99.14 | 79.20 | – | – | – |
| Clc1cccc2c(-c3nnc(CN4CCC(Cc5ccccc5)CC4)[nH]3)c[nH]c12 [Example 40, 3-(5-((4-benzylpiperidin-1-yl)methyl)-4H-1,2,4-triazol-3-yl)-7-chloro-1H-indole] | 53.66 | 92.42 | 50.15 | 648 | 924 | 670 |
| Clc1ccc2[nH]cc(-c3nnc(CN4CCC(Cc5ccccc5)CC4)[nH]3)c2c1 [Example 41, 3-(5-((4-benzylpiperidin-1-yl)methyl)-4H-1,2,4-triazol-3-yl)-5-chloro-1H-indole] | 57.01 | 86.61 | 62.96 | – | – | – |
| COC(=O)c1cccc2c(-c3nnc(CN4CCC(Cc5ccccc5)CC4)[nH]3)c[nH]c12 [Example 42, methyl 3-(5-((4-benzylpiperidin-1-yl)methyl)-4H-1,2,4-triazol-3-yl)-1H-indol-7-carboxylate] | 42.17 | 96.81 | 42.13 | 417 | 969 | 453 |
| Nc1ccc2[nH]cc(-c3nnc(CN4CCC(Cc5ccccc5)CC4)[nH]3)c2c1 [Example 43, 3-(5-((4-benzylpiperidin-1-yl)methyl)-4H-1,2,4-triazol-3-yl)-1H-indol-5-amine] | 35.57 | 88.30 | 54.93 | 506 | 4040 | 435 |
| COc1ccc2[nH]cc(-c3nnc(CN4CCC(Cc5ccc(Cl)c(Cl)c5)CC4)[nH]3)c2c1 [Example 44, 3-(5-((4-(3,4-dichlorobenzyl)piperidin-1-yl)methyl)-4H-1,2,4-triazol-3-yl)-5-methoxy-1H-indole] | 28.87 | 92.59 | 80.58 | – | – | – |
| COc1cccc2c(-c3nnc(CN4CCC(Cc5ccc(Cl)c(Cl)c5)CC4)[nH]3)c[nH]c12 [Example 45, 3-(5-((4-(3,4-dichlorobenzyl)piperidin-1-yl)methyl)-4H-1,2,4-triazol-3-yl)-7-methoxy-1H-indole] | 21.98 | 112.38 | 72.49 | – | – | – |
| N#Cc1ccc(-c2nnc(CN3CCC(Cc4ccccc4)CC3)[nH]2)cc1 [Example 46, 4-(5-((4-benzylpiperidin-1-yl)methyl)-4H-1,2,4-triazol-3-yl)benzonitrile] | 60.13 | 53.00 | 13.85 | 2980 | 816 | 203 |
| Fc1ccc(-c2nnc(CN3CCC(Cc4ccccc4)CC3)[nH]2)cc1 [Example 47, 4-benzyl-1-((5-(4-fluorophenyl)-4H-1,2,4-triazol-3-yl)methyl)piperidine] | 51.93 | 68.26 | 20.47 | 10700 | 1170 | 372 |
| COc1ccc(-c2nnc(CN3CCC(Cc4ccccc4)CC3)[nH]2)cc1OC [Example 48, 4-benzyl-1-((5-(3,4-dimethoxyphenyl)-4H-1,2,4-triazol-3-yl)methyl)piperidine] | 53.41 | 23.52 | 20.20 | 2560 | 348 | 134 |
| FC(F)(F)Oc1ccc(-c2nnc(CN3CCC(Cc4ccccc4)CC3)[nH]2)cc1 [Example 49, 4-benzyl-1-((5-(4-(trifluoromethoxy)phenyl)-4H-1,2,4-triazol-3-yl)methyl)piperidine] | 63.99 | 44.81 | 11.41 | 1770 | 475 | 223 |

From patent publication US20230212144A1, “5-MEMBERED HETEROARYL DERIVATIVE CONTAINING AT LEAST ONE N, AND PHARMACEUTICAL COMPOSITION FOR PREVENTING OR TREATING MENTAL DISORDERS, CONTAINING SAME AS ACTIVE INGREDIENT” (DAEGU-GYEONGBUK MEDICAL INNOVATION FOUNDATION, priority 2020, published 2023)
